How the values were obtained:
capillary tube formation = conditions: in vitro; cited from earlier work
neovascularization = experiment: CAM assay (chick chorioallantoic membrane), neovascularization in vivo
Source text: Assays for the ability to inhibit angiogenesis in vivo include the chick chorioallantoic membrane assay and mouse, rat or rabbit corneal pocket assays. See, Polverini et al., 1991, Methods Enzymol. 198:440-450. In corneal pocket assays, a tumor of choice is implanted into the cornea of the test animal in the form of a corneal pocket. The potential angiogenesis inhibitor is applied to the corneal pocket and the corneal pocket is routinely examined for neovascularization. The purified protein inhibited bFGF-stimulated EC proliferation in the bFGF stimulated EC proliferation assay (Moses, et al., Science, 248:1408-1410 (1990)) (FIG. 1) and inhibited neovascularization in vivo in the CAM assay.

MMP-1 = target: T1, MMP-1 (Homo sapiens, UniProt P03956); experiment: MMP-1 activity assay; type: biochemical; conditions: FIG. 2
T1 sequence (P03956 100-469): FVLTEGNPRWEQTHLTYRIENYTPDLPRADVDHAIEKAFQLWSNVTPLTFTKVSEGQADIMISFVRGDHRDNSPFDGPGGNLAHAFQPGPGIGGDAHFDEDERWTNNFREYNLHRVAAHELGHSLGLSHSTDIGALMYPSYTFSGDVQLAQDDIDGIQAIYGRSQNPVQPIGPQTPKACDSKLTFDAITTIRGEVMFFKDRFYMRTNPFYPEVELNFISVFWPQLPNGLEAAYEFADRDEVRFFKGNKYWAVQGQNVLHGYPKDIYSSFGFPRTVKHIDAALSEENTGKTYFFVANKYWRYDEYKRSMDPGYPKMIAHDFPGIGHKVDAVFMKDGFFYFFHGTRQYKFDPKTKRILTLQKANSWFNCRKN
Source text: FIG. 2: MMP-1 activity assay. The purified protein inhibited bFGF-stimulated EC proliferation in the bFGF stimulated EC proliferation assay (Moses, et al., Science, 248:1408-1410 (1990)) (FIG. 1) and inhibited neovascularization in vivo in the CAM assay.

[1] = tested on: capillary endothelial cells (EC); experiment: bFGF-stimulated EC proliferation assay; type: cell-based; conditions: FIG. 1
Source text: Inhibition of endothelial cell proliferation may be measured by calorimetric determination of cellular acid phosphatase activity or electronic cell counting. These methods provide a quick and sensitive screen for determining the number of endothelial cells in culture after treatment with the connective tissue growth factor protein, derivative, or analog of the invention, and an angiogenesis stimulating factor such as aFGF. The calorimetric determination of cellular acid phosphatase activity is described by Connolly et al., 1986, J. Anal. Biochem. J52:136-140. According to this method, capillary endothelial cells are treated with angiogenesis stimulating factors, such as aFGF, and a range of potential inhibitor concentrations. These samples are incubated to allow for growth, and then harvested, washed, lysed in a buffer containing a phosphatase substrate, and then incubated a second time. A basic solution is added to stop the reaction and color development is determined at […]. According to Connolly et al., a linear relationship is obtained between acid phosphatase activity and endothelial cell number up to 10,000 cells/sample. […] Percent inhibition is determined by comparing the cell number of samples exposed to stimulus with those exposed to both stimulus and inhibitor. […] Following incubation, the cells are harvested and the extent of thymidine incorporation is determined. […]

microvascular cells = conditions: in vitro, amnion invasion assay; cited from earlier work
endothelial cell = conditions: cited from earlier work
MMP = experiment: standard radiometric enzyme assay for MMP inhibition; type: biochemical
Description: After 24 hours, positive colonies were harvested, pooled and re-plated into minimal plates. Since multiple copies of the construct are reported to confer resistance to high levels of GF18 we screened for “jackpot” clones by replica plating in increasing doses of GF18, as high as 4 mg/ml. After four days, approximately five colonies containing multiple copies of the gene were screened for expression levels of TIMP-3 in 5 ml cultures. The two clones showing the highest expression, T3-3 His+Mut^s and T3-A His+Mut^s, were then used to inoculate 500 ml cultures, as was one clone containing pPIC9K vector alone as a control for background expression. Both T3-3 and T3-A produced a prominent protein band at app. […] Highly purified TIMP-3 was obtained by subsequent chromatography on a Progel-TSK G30000SWK HPLC column (Supelco) followed by SDS-PAGE and silver staining. […] Both T3-3 and T3-A were inhibitory when tested in the standard radiometric enzyme assay for MMP inhibition (Moses, M. A., et al., Science 248:1408-1410, (1990) and Moses, M. A., et al., J. Cell Biol. 119:475-482, (1992)).

For `c1cnc2c(c1)ccc1cccnc12` [1,10-phenanthroline], which “inhibition of capillary tube formation” value (capillary tube formation) is on record?
Its value is “could inhibit”.

With “CKITRCPMIPCYISSPDECLWMDWVTEKNINGHQAKFFACIKRSDGSCAWYRGA APPKQEFLDIEDP [purified protein]” as the molecule, how does the “inhibition of neovascularization in vivo” value (neovascularization) read?
Its value is “inhibited”.

What about the “inhibition of MMP-1 activity” value (MMP-1) of the same molecule?
The value was “did not inhibit”.

What about the “inhibition of bFGF-stimulated EC proliferation” value [1] of the same molecule?
Its value is “inhibited”.

For “TIMP-1: Tissue Inhibitor of MetalloProteinase 1”, which “inhibition of migration of microvascular cells” value (microvascular cells) is on record?
The value was “could inhibit”.

And the “inhibition of FGF-stimulated endothelial cell proliferation” value (endothelial cell; FGF-stimulated)?
The value was “not”.

And the “effect on growth of EC proliferation” value (endothelial cell; other studies)?
Its value is “stimulate”.

B1: T3-3: full length human TIMP-3 expressed by Pichia pastoris clone T3-3 (protein)
chain: CTCSPSHPQDAFCNSDIVIRAKVVGKKLVKEGPFGTLVYTIKQMKMYRGFTKMPHVQYIHTEASESLCGLKLEVNKYQYLLTGRVYDGKMYTGLCNFVERWDQLTLSQRKGLNYRYHLGCNCKIKSCYYLPCFVTSKNECLWTDMLSNFGYPGYQSKHYACIRQKGGYCSWYRGWAPPDKSIINATDP
With B1 as the molecule, how does the MMP inhibition (MMP) read?
Its MMP inhibition is “inhibitory”.

B2: T3-A: full length human TIMP-3 expressed by Pichia pastoris clone T3-A (protein)
chain: CTCSPSHPQDAFCNSDIVIRAKVVGKKLVKEGPFGTLVYTIKQMKMYRGFTKMPHVQYIHTEASESLCGLKLEVNKYQYLLTGRVYDGKMYTGLCNFVERWDQLTLSQRKGLNYRYHLGCNCKIKSCYYLPCFVTSKNECLWTDMLSNFGYPGYQSKHYACIRQKGGYCSWYRGWAPPDKSIINATDP
Which MMP inhibition (MMP) does the source give for B2 here?
Its MMP inhibition is “inhibitory”.

From US6737507B2, “Antiangiogenic peptides and compositions thereof” (Children's Medical Center Corporation, priority 1999, dated 2004)
